Patent US20040235070A1, “Immune reactivity to expressed activated oncogenes for diagnosis and treatment of malignancy” (Washington Research Foundation, priority 1990, published 2004)

Key:
[1] = system: lymph node and splenic lymphocytes from immunized mice; assay: Proliferation of lymph node and spleen lymphocytes from mice immunized with bcr3-abl2 peptide; format: cell-based; conditions: BALB/c mice immunized with bcr3-abl2 12 mer peptide
Method: Ten days following immunization with peptide, draining lymph node cells (Panel A) and spleen cells (Panel B) were cultured alone or with bcr3-abl2 12 mer peptide, or bcr2-abl2 12 mer peptide, or ras-c12 12 mer peptide at 25 μg/ml, and assayed after 96 hours for proliferation by [^3H] thymidine uptake. The data represent the mean of triplicate determinations of the c.p.m.+S.D.
Mice (female BALB/c and C57BL/6 (B6), 6 to 8 weeks old; Jackson Laboratories, Bar Harbor, Me.) were inoculated twice at 2-week intervals by subcutaneous injection with Complete Freund's Adjuvant (Sigma Chemical Co., St. Louis, Mo.) alone or emulsified with bcr3-abl2 peptide (100 μg). Ten days after the final immunization, single cell suspensions of draining lymph nodes and spleens were prepared in medium consisting of 1:1 mixture of RPMI 1640 (Gibco Laboratories, Inc., Grand Island, N.Y.) and EHAA (Biofluids, Inc., Rockville, Md.) with 2.5×10^−5 M 2-ME, 200 U/ml penicillin, 200 U/ml streptomycin, 10 mM L-glutamine and 10% fetal calf serum. For proliferative assays, lymphocytes were cultured in 96-well plates at 2×10^5 cells per well with 4×10^5 irradiated syngeneic spleen cells (3,000 rad) and designated (total volume of 200 μl per well). Plates were incubated in a humidified atmosphere under 5% CO2 tension at 37° C. for 72 hours, and then pulsed for 18 hours with […] of [^3H]-thumidine per well. […]

[2] = system: bcr3-abl2 peptide-specific CD4^+ T cell clones; assay: Proliferative assay of bcr3-abl2 peptide-specific CD4+ T cell clones ([3H] thymidine incorporation); format: cell-based, BALB/c mice; conditions: for [^3H] Thymidine Incorporation (c.p.m.) after Stimulation / [^3H] Thymidine Incorporation (c.p.m.): 96-hour culture; for [^3H] Thymidine Incorporation (c.p.m.): Table 2; for [^3H] Thymidine Incorporation (c.p.m.) after Stimulation with bcr3-abl2 peptide (5 μg/ml): peptides of varying lengths 5 μg/ml, 96 hour culture, Table 4
Method: Mice (female BALB/c and C57BL/6 (B6), 6 to 8 weeks old; Jackson Laboratories, Bar Harbor, Me.) were inoculated twice at 2-week intervals by subcutaneous injection with Complete Freund's Adjuvant (Sigma Chemical Co., St. Louis, Mo.) alone or emulsified with bcr3-abl2 peptide (100 μg). Ten days after the final immunization, single cell suspensions of draining lymph nodes and spleens were prepared in medium consisting of 1:1 mixture of RPMI 1640 (Gibco Laboratories, Inc., Grand Island, N.Y.) and EHAA (Biofluids, Inc., Rockville, Md.) with 2.5×10^−5 M 2-ME, 200 U/ml penicillin, 200 U/ml streptomycin, 10 mM L-glutamine and 10% fetal calf serum. For proliferative assays, lymphocytes were cultured in 96-well plates at 2×10^5 cells per well with 4×10^5 irradiated syngeneic spleen cells (3,000 rad) and designated (total volume of 200 μl per well). Plates were incubated in a humidified atmosphere under 5% CO2 tension at 37° C. for 72 hours, and then pulsed for 18 hours with […] of [^3H]-thumidine per well. Proliferative responses of cloned T cells utilized 2×10^4 cells per well with 5×10^5 irradiated syngeneic spleen cells (3,000 rad) and designated peptide.
Lymphocytes from the draining lymph nodes of mice immunized with bcr3-abl2 peptide were cultured in 24-well culture plates at 4×10^6 cells per well with 2×10^6 irradiated syngeneic spleen cells and bcr3-abl2 peptide at 25 μg/ml (total volume 2 ml). The plates were cultured in a humidified atmosphere under 5% CO2 tension at 37° C. for 5 days then split 1:2. After 10 days, lymphocytes were restimulated at 1×10^6 lymphocytes per well in 24-well culture plates with 5×10^6 irradiated syngeneic spleen cells and peptide (25 μg/ml). Two days after the second in vitro stimulation, T cells were-plated at 0.5 cells per well in 96-well flat-bottom plates with 1×10^6 irradiated syngeneic spleen cells and rIL-2 (50 U/ml). Derived T cell clones were maintained by periodic stimulation with peptide (1 μg/ml) plus irradiated syngeneic spleen cells followed by expansion with rIL-2 (10 U/ml) every 2 weeks. T cell clones were stained with FITC-conjugated anti-Thy 1.2 (1%), or FITC-conjugated anti-Lyt2 (2%), or PE-conjugated anti-L3T4 (3%) mAbs (Becton Dickinson Immunocytochemistry Systems, Mountain View, Calif.) at 4° C. for 45 minutes.

Sequence: G F K Q S S K A L Q R P (GFKQSSKALQRP) [bcr3-abl2 12 mer peptide, 12 amino acid peptide identical to the joining region of p210 bcr-abl (bcr exon 3 fused to c-abl exon 2)]
- proliferation in vitro of lymph node and splenic lymphocytes [1]: proliferated in vitro
- [^3H] Thymidine Incorporation (c.p.m.) after Stimulation ([2]; T cell clone 1D2, peptide 0.04 μg/ml): 16,423 c.p.m.
- [^3H] Thymidine Incorporation (c.p.m.) after Stimulation ([2]; T cell clone 1D2, peptide 0.2 μg/ml): 91,251 c.p.m.
- [^3H] Thymidine Incorporation (c.p.m.) after Stimulation ([2]; T cell clone 1D2, peptide 1 μg/ml): 183,229 c.p.m.
- [^3H] Thymidine Incorporation (c.p.m.) ([2]; T cell clone 1D2, peptide 5 μg/ml): 274,701 c.p.m.
- [^3H] Thymidine Incorporation (c.p.m.) after Stimulation ([2]; T cell clone 1D2, peptide 5 μg/ml, Table 3): 259,018 c.p.m.
- [^3H] Thymidine Incorporation (c.p.m.) after Stimulation ([2]; T cell clone 1D2, peptide 25 μg/ml): 66,329 c.p.m.
- [^3H] Thymidine Incorporation (c.p.m.) after Stimulation with bcr3-abl2 peptide (5 μg/ml) ([2]; T cell clone 1D2): 120,049 c.p.m.
- [^3H] Thymidine Incorporation (c.p.m.) after Stimulation ([2]; T cell clone 2B12, peptide 0.04 μg/ml): 4,132 c.p.m.
- [^3H] Thymidine Incorporation (c.p.m.) after Stimulation ([2]; T cell clone 2B12, peptide 0.2 μg/ml): 71,651 c.p.m.
- [^3H] Thymidine Incorporation (c.p.m.) after Stimulation ([2]; T cell clone 2B12, peptide 1 μg/ml): 213,089 c.p.m.
- [^3H] Thymidine Incorporation (c.p.m.) ([2]; T cell clone 2B12, peptide 5 μg/ml): 109,319 c.p.m.
- [^3H] Thymidine Incorporation (c.p.m.) after Stimulation ([2]; T cell clone 2B12, peptide 5 μg/ml, Table 3): 229,010 c.p.m.
- [^3H] Thymidine Incorporation (c.p.m.) after Stimulation ([2]; T cell clone 2B12, peptide 25 μg/ml): 132,620 c.p.m.
- [^3H] Thymidine Incorporation (c.p.m.) after Stimulation ([2]; T cell clone 2D4, peptide 0.04 μg/ml): 12,599 c.p.m.
- [^3H] Thymidine Incorporation (c.p.m.) after Stimulation ([2]; T cell clone 2D4, peptide 0.2 μg/ml): 150,711 c.p.m.
- [^3H] Thymidine Incorporation (c.p.m.) after Stimulation ([2]; T cell clone 2D4, peptide 1 μg/ml): 256,606 c.p.m.
- [^3H] Thymidine Incorporation (c.p.m.) ([2]; T cell clone 2D4, peptide 5 μg/ml): 262,799 c.p.m.
- [^3H] Thymidine Incorporation (c.p.m.) after Stimulation ([2]; T cell clone 2D4, peptide 5 μg/ml, Table 3): 182,266 c.p.m.
- [^3H] Thymidine Incorporation (c.p.m.) after Stimulation ([2]; T cell clone 2D4, peptide 25 μg/ml): 42,623 c.p.m.
- [^3H] Thymidine Incorporation (c.p.m.) after Stimulation ([2]; T cell clone 2E3, peptide 0.04 μg/ml): 1,475 c.p.m.
- [^3H] Thymidine Incorporation (c.p.m.) after Stimulation ([2]; T cell clone 2E3, peptide 0.2 μg/ml): 93,921 c.p.m.
- [^3H] Thymidine Incorporation (c.p.m.) after Stimulation ([2]; T cell clone 2E3, peptide 1 μg/ml): 273,273 c.p.m.
- [^3H] Thymidine Incorporation (c.p.m.) ([2]; T cell clone 2E3, peptide 5 μg/ml): 293,219 c.p.m.
- [^3H] Thymidine Incorporation (c.p.m.) after Stimulation ([2]; T cell clone 2E3, peptide 5 μg/ml, Table 3): 407,729 c.p.m.
- [^3H] Thymidine Incorporation (c.p.m.) after Stimulation ([2]; T cell clone 2E3, peptide 25 μg/ml): 358,253 c.p.m.
- [^3H] Thymidine Incorporation (c.p.m.) after Stimulation ([2]; T cell clone 2E10, peptide 0.04 μg/ml): 26,195 c.p.m.
- [^3H] Thymidine Incorporation (c.p.m.) after Stimulation ([2]; T cell clone 2E10, peptide 0.2 μg/ml): 235,103 c.p.m.
- [^3H] Thymidine Incorporation (c.p.m.) after Stimulation ([2]; T cell clone 2E10, peptide 1 μg/ml): 333,056 c.p.m.
- [^3H] Thymidine Incorporation (c.p.m.) ([2]; T cell clone 2E10, peptide 5 μg/ml): 242,633 c.p.m.
- [^3H] Thymidine Incorporation (c.p.m.) after Stimulation ([2]; T cell clone 2E10, peptide 5 μg/ml, Table 3): 312,783 c.p.m.
- [^3H] Thymidine Incorporation (c.p.m.) after Stimulation ([2]; T cell clone 2E10, peptide 25 μg/ml): 131,643 c.p.m.
- [^3H] Thymidine Incorporation (c.p.m.) after Stimulation with bcr3-abl2 peptide (5 μg/ml) ([2]; T cell clone 2E10): 96,525 c.p.m.
- [^3H] Thymidine Incorporation (c.p.m.) after Stimulation ([2]; T cell clone 3B7, peptide 0.04 μg/ml): 60,957 c.p.m.
- [^3H] Thymidine Incorporation (c.p.m.) after Stimulation ([2]; T cell clone 3B7, peptide 0.2 μg/ml): 56,967 c.p.m.
- [^3H] Thymidine Incorporation (c.p.m.) after Stimulation ([2]; T cell clone 3B7, peptide 1 μg/ml): 111,212 c.p.m.
- [^3H] Thymidine Incorporation (c.p.m.) ([2]; T cell clone 3B7, peptide 5 μg/ml): 64,935 c.p.m.
- [^3H] Thymidine Incorporation (c.p.m.) after Stimulation ([2]; T cell clone 3B7, peptide 5 μg/ml, Table 3): 149,640 c.p.m.
- [^3H] Thymidine Incorporation (c.p.m.) after Stimulation ([2]; T cell clone 3B7, peptide 25 μg/ml): 53,441 c.p.m.
- [^3H] Thymidine Incorporation (c.p.m.) after Stimulation ([2]; T cell clone 3E11, peptide 0.04 μg/ml): 91,240 c.p.m.
- [^3H] Thymidine Incorporation (c.p.m.) after Stimulation ([2]; T cell clone 3E11, peptide 0.2 μg/ml): 135,985 c.p.m.
- [^3H] Thymidine Incorporation (c.p.m.) after Stimulation ([2]; T cell clone 3E11, peptide 1 μg/ml): 189,843 c.p.m.
- [^3H] Thymidine Incorporation (c.p.m.) ([2]; T cell clone 3E11, peptide 5 μg/ml): 263,425 c.p.m.
- [^3H] Thymidine Incorporation (c.p.m.) after Stimulation ([2]; T cell clone 3E11, peptide 5 μg/ml, Table 3): 130,633 c.p.m.
- [^3H] Thymidine Incorporation (c.p.m.) after Stimulation ([2]; T cell clone 3E11, peptide 25 μg/ml): 40,755 c.p.m.
- [^3H] Thymidine Incorporation (c.p.m.) after Stimulation ([2]; T cell clone 3G2, peptide 0.04 μg/ml): 9,440 c.p.m.
- [^3H] Thymidine Incorporation (c.p.m.) after Stimulation ([2]; T cell clone 3G2, peptide 0.2 μg/ml): 49,602 c.p.m.
- [^3H] Thymidine Incorporation (c.p.m.) after Stimulation ([2]; T cell clone 3G2, peptide 1 μg/ml): 150,799 c.p.m.
- [^3H] Thymidine Incorporation (c.p.m.) ([2]; T cell clone 3G2, peptide 5 μg/ml): 30,846 c.p.m.
- [^3H] Thymidine Incorporation (c.p.m.) after Stimulation ([2]; T cell clone 3G2, peptide 5 μg/ml, Table 3): 168,387 c.p.m.
- [^3H] Thymidine Incorporation (c.p.m.) after Stimulation ([2]; T cell clone 3G2, peptide 25 μg/ml): 132,024 c.p.m.
- [^3H] Thymidine Incorporation (c.p.m.) after Stimulation ([2]; T cell clone 3G3, peptide 0.04 μg/ml): 11,510 c.p.m.
- [^3H] Thymidine Incorporation (c.p.m.) after Stimulation ([2]; T cell clone 3G3, peptide 0.2 μg/ml): 18,403 c.p.m.
- [^3H] Thymidine Incorporation (c.p.m.) after Stimulation ([2]; T cell clone 3G3, peptide 1 μg/ml): 93,219 c.p.m.
- [^3H] Thymidine Incorporation (c.p.m.) ([2]; T cell clone 3G3, peptide 5 μg/ml): 61,521 c.p.m.
- [^3H] Thymidine Incorporation (c.p.m.) after Stimulation ([2]; T cell clone 3G3, peptide 5 μg/ml, Table 3): 143,670 c.p.m.
- [^3H] Thymidine Incorporation (c.p.m.) after Stimulation ([2]; T cell clone 3G3, peptide 25 μg/ml): 101,280 c.p.m.
- response of bcr3-abl2 peptide-specific T cell clones (in words) ([2]; proliferative assay with irradiated syngeneic APC): responded specifically
- lowest concentration to which clones responded vigorously ([2]; some clones, lowest concentration tested): 0.04 µg/mL
